# Experiments:
# [1] = system: intimal hyperplasia of the common carotid artery; assay: Intimal hyperplasia of a blood vessel caused by scraping endothelium of common carotid artery in alloxan-induced diabetic rabbits; format: in vivo, Japanese white rabbits; settings: 3 mg/kg orally once a day for 6 weeks; arteries removed 4 weeks after scraping endothelium; compared to the control group; FIG. 1
# Experimental: Effect on Intimal Hyperplasia of a Blood vessel Caused by Scraping Endothelium of Common Carotid Artery in Rabbits
# Diabetic model animals made by administrating alloxan (50 mg/kg) into Japanese white rabbits (body weight: 2.0 to 3.3 kg) were divided into 2 groups; one was a mitiglinide-treated group (n=5) in which mitiglinide calcium hydrate (3 mg/kg) suspended in 0.5% carboxymethylcellulose was administered orally once a day before feeding for 6 weeks from the next day of alloxan-administration to the day before experimental termination, and the other was the control group (n=4) in which 0.5% carboxymethylcellulose was administered in the same way. Two weeks after the alloxan-administration, the endothelium of the right common carotid artery was scraped using a balloon catheter, and then, the incision on the vessel wall was sutured with care not to cause stenosis. […] Four (4) weeks after the operation of scraping endothelium of a blood vessel, the bilateral common carotid arteries were removed, and the intimal, medial and luminal areas of the sections of the arteries were measured using a morphometric analyzer. Fasting plasma glucose levels were measured 2 weeks after the alloxan-administration (on the day of scraping the endothelium) and 6 weeks after the alloxan-administration (on the day of removing the arteries.
# [2] = Fasting plasma glucose levels in alloxan-induced diabetic rabbits; format: in vivo, Japanese white rabbits; settings: 3 mg/kg orally once a day
# Experimental: Diabetic model animals made by administrating alloxan (50 mg/kg) into Japanese white rabbits (body weight: 2.0 to 3.3 kg) were divided into 2 groups; one was a mitiglinide-treated group (n=5) in which mitiglinide calcium hydrate (3 mg/kg) suspended in 0.5% carboxymethylcellulose was administered orally once a day before feeding for 6 weeks from the next day of alloxan-administration to the day before experimental termination, and the other was the control group (n=4) in which 0.5% carboxymethylcellulose was administered in the same way. Two weeks after the alloxan-administration, the endothelium of the right common carotid artery was scraped using a balloon catheter, and then, the incision on the vessel wall was sutured with care not to cause stenosis. The left common carotid artery was used as a side of Sham-operation (the normal group). Four (4) weeks after the operation of scraping endothelium of a blood vessel, the bilateral common carotid arteries were removed, and the intimal, medial and luminal areas of the sections of the arteries were measured using a morphometric analyzer. Fasting plasma glucose levels were measured 2 weeks after the alloxan-administration (on the day of scraping the endothelium) and 6 weeks after the alloxan-administration (on the day of removing the arteries.
structure (smiles),measurement,setting,value
"O=C(O)[C@H](CC(=O)N1C[C@H]2CCCC[C@H]2C1)Cc1ccccc1 [mitiglinide calcium hydrate, bis{(2S)-2-benzyl-3-(cis-hexahydro-2-isoindolinylcarbonyl)-propionic acid}calcium dihydrate]",inhibitory effect on intimal hyperplasia (ratio of intimal area to medial area),[1],significant inhibitory effect
same,influence on fasting plasma glucose level,"[2]; 2 weeks after alloxan-administration, FIG. 2",no influence
same,influence on fasting plasma glucose level,"[2]; 6 weeks after alloxan-administration, FIG. 3",no influence

# Source: patent US20070254938A1, “Preventive or Therapeutic Agent for Vascular Intimal Proliferative Disease” (priority 2004, published 2007)
